From ChEMBL document CHEMBL4715908, “Design, synthesis, characterization, and anticancer activity of a novel series of O-substituted chalcone derivatives” (Bioorg Med Chem Lett, 2021)

Legend:
[1] = Cytotoxicity against mouse AML12 cells assessed as reduction in cell viability after 72 hrs by RRA assay; type: cell-based; conditions: AML12, 72 h
[2] = Resistant index, ratio of IC50 for cytotoxicity against human HCT-116 p53-/- cells to IC50 for cytotoxicity against human HCT-116 p53+/+ cells
[3] = Cytotoxicity against human MDA-MB-231/BCRP cells assessed as reduction in cell viability after 72 hrs by RRA assay; type: functional, cell-based
ADR5000 cell line = assay: Cytotoxicity against human CEM/ADR5000 cells assessed as reduction in cell viability after 72 hrs by RRA assay; type: functional, cell-based; conditions: ADR5000, 72 h
[4] = Cytotoxicity against human U87.deltaEGFR cells assessed as reduction in cell viability after 72 hrs by RRA assay; type: functional, cell-based; conditions: U87MG.deltaEGFR
MDA-MB-231 = assay: Cytotoxicity against human MDA-MB-231 pcDNA cells assessed as reduction in cell viability after 72 hrs by RRA assay; type: functional, cell-based; conditions: MDA-MB-231, 72 h
[5] = Resistant index, ratio of IC50 for cytotoxicity against human U87MG.deltaEGFR cells to IC50 for cytotoxicity against human U87 cells; type: functional
U-87 MG = assay: Cytotoxicity against human U87 cells assessed as reduction in cell viability after 72 hrs by RRA assay; type: functional, cell-based, U-87MG ATCC
HepG2 [6] = assay: Cytotoxicity against human HepG2 cells assessed as reduction in cell viability after 72 hrs by RRA assay; type: functional, cell-based; conditions: HepG2, 72 h
HCT-116 [7] = assay: Cytotoxicity against human HCT-116 p53-/- cells assessed as reduction in cell viability after 72 hrs by RRA assay; type: functional, cell-based; conditions: HCT-116, 72 h
HCT-116 [8] = assay: Cytotoxicity against human HCT-116 p53+/+ cells assessed as reduction in cell viability after 72 hrs by RRA assay; type: functional, cell-based; conditions: HCT-116, 72 h
[9] = Selectivity index, ratio of IC50 for cytotoxicity against mouse AML12 cells to IC50 for cytotoxicity against human HepG2 cells
[10] = Resistant index, ratio of IC50 for cytotoxicity against human CEM/ADR5000 cells to IC50 for cytotoxicity against human CCRF-CEM cells; type: functional
[11] = Resistant index, ratio of IC50 for cytotoxicity against human MDA-MB-231/BCRP cells to IC50 for cytotoxicity against human MDA-MB-231 pcDNA cells; type: functional
CCRF-CEM = assay: Cytotoxicity against human CCRF-CEM cells assessed as reduction in cell viability after 72 hrs by RRA assay; type: functional, cell-based
[12] = Resistant index, ratio of IC50 for cytotoxicity against human HCT-116 p53+/+ cells to IC50 for cytotoxicity against human HCT-116 p53-/- cells; type: functional
HL-60 = assay: Cytotoxicity against human HL-60 cells assessed as reduction in cell viability after 72 hrs by SRB assay; type: functional, cell-based; conditions: HL-60, 72 h
DU-145 = assay: Cytotoxicity against human DU-145 cells assessed as reduction in cell viability after 72 hrs by SRB assay; type: functional, cell-based; conditions: DU-145, 72 h
THP-1 = assay: Cytotoxicity against human THP-1 cells assessed as reduction in cell viability after 72 hrs by SRB assay; type: functional, cell-based; conditions: THP-1, 72 h
HepG2 [13] = assay: Cytotoxicity against human HepG2 cells assessed as reduction in cell viability after 72 hrs by SRB assay; type: functional, cell-based; conditions: HepG2, 72 h
MCF7 = assay: Cytotoxicity against human MCF7 cells assessed as reduction in cell viability after 72 hrs by SRB assay; type: functional, cell-based; conditions: MCF7, 72 h

Structure (SMILES) | IC50 [1] | Ratio IC50 [2] | IC50 [3] | IC50 (ADR5000 cell line) | IC50 [4] | IC50 (MDA-MB-231) | Ratio IC50 [5] | IC50 (U-87 MG) | IC50 (HepG2 [6]) | IC50 (HCT-116 [7]) | IC50 (HCT-116 [8]) | Ratio IC50 [9] | Ratio IC50 [10] | Ratio IC50 [11] | IC50 (CCRF-CEM) | further results
C#CCOc1ccc(/C=C/C(=O)c2cccc(Br)c2)cc1OC | 12.5 µM | 0.66 | 3.09 µM | 2.28 µM | 4.16 µM | 3.5 µM | 1.61 | 2.59 µM | 10.1 µM | 1.9 µM | 2.9 µM | 1.24 | 0.15 | 0.88 | 15.2 µM | 
C=CCOc1ccc(/C=C/C(=O)c2ccc(OCC=C(C)C)c(CC=C)c2)cc1OC |  |  |  |  |  |  |  |  |  |  |  |  |  |  | > 50 µM | 
C=CCOc1ccc(/C=C\C(=O)c2ccc(OCC=C(C)C)c(CC=C)c2)cc1OC |  |  |  |  |  |  |  |  |  |  |  |  |  |  | > 50 µM | 
C#CCOc1ccc(/C=C/C(=O)c2ccc(C)cc2)cc1OC |  |  |  |  |  |  |  |  |  |  |  |  |  |  | > 50 µM | 
C#CCOc1ccc(/C=C/C(=O)c2ccc(-n3ccnc3)cc2)cc1OC | 12.7 µM | 0.86 | 1.74 µM | 1 µM | 1.08 µM | 2.03 µM | 0.77 | 1.41 µM | 5.39 µM | 0.67 µM | 0.78 µM | 2.36 | 0.07 | 0.86 | 15 µM | 
C#CCOc1ccc(C=O)cc1OC |  |  |  |  |  |  |  |  |  |  |  |  |  |  | > 50 µM | 
C#CCOc1ccc(/C=C/C(=O)c2ccc(OC)c(OC)c2)cc1OC | 6.75 µM | 0.16 | 1.89 µM | 1.44 µM | 1.56 µM | 13.6 µM | 0.55 | 2.86 µM | 5.98 µM | 0.32 µM | 2.01 µM | 1.13 | 0.17 | 0.14 | 8.65 µM | 
C#CCOc1ccc(C(CC(=O)c2cccc(C)c2)CC(=O)c2cccc(C)c2)cc1OC |  |  |  |  |  |  |  |  |  |  |  |  |  |  | > 50 µM | 
C#CCOc1ccc(/C=C/C(=O)c2cccc(C)c2)cc1OC | 11.3 µM | 0.77 | 1.77 µM | 1.38 µM | 1.97 µM | 2.03 µM | 1.09 | 1.8 µM | 5.03 µM | 1.06 µM | 1.38 µM | 2.24 | 0.16 | 0.87 | 8.82 µM | 
C#CCOc1ccc(C(CC(=O)c2cccc(Br)c2)CC(=O)c2cccc(Br)c2)cc1OC |  |  |  |  |  |  |  |  |  |  |  |  |  |  | > 50 µM | 
C#CCOc1ccc(/C=C/C(=O)c2ccc(C(C)C)cc2)cc1OC | 9.91 µM |  | 2.93 µM | 2.72 µM | 2.12 µM | 4.07 µM | 0.75 | 2.84 µM | 6.31 µM | 3.13 µM | 3.7 µM | 1.57 | 0.23 | 0.72 | 11.8 µM | Ratio IC50 [12]: 0.85
C=CCOc1ccc(/C=C/C(=O)c2ccccc2C)cc1OC |  |  |  |  |  |  |  |  |  |  |  |  |  |  |  | IC50 (HL-60): 7.9 µM; IC50 (DU-145): 5.21 µM; IC50 (THP-1): 4.76 µM; IC50 (HepG2 [13]): 10.1 µM; IC50 (MCF7): 10.3 µM
C#CCOc1ccc(/C=C/C(=O)c2ccccc2C)cc1OC | 8.2 µM | 0.64 | 0.99 µM | 0.92 µM | 1.21 µM | 14.8 µM | 0.58 | 2.1 µM | 2.64 µM | 1.06 µM | 1.66 µM | 3.11 | 0.13 | 0.07 | 6.95 µM | 
C=CCOc1ccc(C=O)cc1OC | 15.3 µM | 1.39 | 7.53 µM | 3.48 µM | 6.97 µM | 15 µM | 0.93 | 7.5 µM | 10.5 µM | 8.02 µM | 5.77 µM | 1.46 | 0.25 | 0.5 | 14 µM | 
C#CCOc1ccc(/C=C/C(=O)c2cccn2C)cc1OC |  |  |  |  |  |  |  |  |  |  |  |  |  |  | > 50 µM | 
C#CCOc1ccc(/C=C/C(=O)c2ccc(CC=C(C)C)cc2)cc1OC |  |  |  |  |  |  |  |  |  |  |  |  |  |  | > 50 µM | 
C=CCc1cc(C(C)=O)ccc1OCC=C(C)C | 18.1 µM | 1.31 | 11.9 µM | 5.25 µM | 12.2 µM | 17.9 µM | 0.94 | 12.9 µM | 14.7 µM | 14 µM | 10.6 µM | 1.23 | 0.32 | 0.67 | 16.2 µM | 
COc1cccc2c1C(=O)c1c(O)c3c(c(O)c1C2=O)C[C@@](O)(C(=O)CO)C[C@@H]3O[C@H]1C[C@H](N)[C@H](O)[C@H](C)O1 [DOXORUBICIN] | 52.9 µM |  | 0.79 µM |  | 0.98 µM | 0.13 µM |  | 0.26 µM | 4.56 µM | 1.78 µM |  |  |  |  | 0.02 µM | 
C#CCOc1ccc(C(=O)/C=C/c2ccc(OCC=C)c(OC)c2)cc1CC=C |  |  |  |  |  |  |  |  |  |  |  |  |  |  | > 50 µM | 
C#CCOc1ccc(/C=C/C(=O)c2cccc(OC)c2)cc1OC | 11.4 µM | 0.53 | 1.23 µM | 1.1 µM | 1.33 µM | 13.8 µM | 0.91 | 1.46 µM | 5.54 µM | 1.01 µM | 1.92 µM | 2.05 | 0.2 | 0.09 | 5.59 µM | 
C#CCOc1ccc(C(C)=O)cc1CC=C |  |  |  |  |  |  |  |  |  |  |  |  |  |  | 38.2 µM | 
C#CCOc1ccc(/C=C/C(=O)c2ccc3c(c2)OCO3)cc1OC |  |  |  |  |  |  |  |  |  |  |  |  |  |  | > 50 µM | 
C#CCOc1ccc(/C=C/C(=O)c2ccn(C)c2)cc1OC |  |  |  |  |  |  |  |  |  |  |  |  |  |  | > 50 µM | 
